The record followed here is patent US10314819B2, “Solid state forms of Eluxadoline” (TEVA PHARMACEUTICALS INTERNATIONAL GMBH, priority 2015, dated 2019).

What all share (format): physicochemical
Series [1] is described as follows: Texture analysis / density at 0.2 MPa. The settings on record: 200 mg sample compressed in steel mould. The procedure:
A simple and low sample consuming method for evaluation of the packing density of powders were obtained as compression profiles under low pressures using a die and a flat-faced punch fitted on a TA-XTplus Texture analyser (Stable Micro Systems Ltd., Godalming, UK). The small amount of 200 mg of sample is compressed in a steel mould (with the rate of displacement 0.03 mm/s). Also, a cyclic procedure (similar to tapping) was performed at maximal compressive displacement 0.5 mm, then retracting, relaxation for 15 s and then repeated compressive steps (altogether up to 20 steps).

A short description of series [2]: Dissolution in 50 mM phosphate buffer pH = 7.4 at 37° C. The settings on record: 50 mM phosphate buffer pH = 7.4, 37° C. The procedure:
Samples were prepared and analysed in duplicate. About 20 mg of each sample were weighed into 500 ml Erlenmeyer flask, 200 ml of 50 mM phosphate buffer pH=7.4, previously heated to 37° C. were added and flasks were shaken at 110 rpm for 60 minutes at 37±0.2° C. in an incubator shaker. 3 ml aliquots were taken at 5, 10, 20, 30, 45 and 60 min, filtered through 0.45 μm Chromafil Xtra RC 45/25 syringe filter and analysed by UV/VIS spectrometer (absorbance at 203 nm).
The measurement was performed using the following instruments: • pH/Ion meter PHM 240, MeterLab, Radiometer Analytical • Incubator shaker Innova 4080, New Brunswick Scientific, 19 mm diameter circular orbit • UV/VIS spectrometer Varian Cary 50 Bio, 1 mm quartz cell Results of Eluxadoline samples dissolution in 50 mM phosphate buffer pH=7.4 are summarized in Table 8 below: […]

Series [3] is described as follows: Specific surface area (SSA), BET nitrogen. As for the experimental part: Specific Surface Area (SSA) measurements (Bet Nitrogen) were determined using a Micromeritics ASAP 2000, specific surface area analyzer. Samples were subjected to the BET nitrogen adsorption analysis to determine the specific surface of the samples.
Sample tube: 10 cc bulb with ½″ stem
Sample mass: Approximately ½ full cell
Sample preparation: Degassing with nitrogen
Outgassing conditions: 40° C. (30 min)
Isothermal collection point: 20 adsorption points, in the range 0-1 P/P0
Isothermal data analysis range: 5 point BET in the range 0.05-0.20 P/P0
Equilibration interval: 5 s
Equilibration time out: 600 s

A short description of series [4]: Bulk density/tapped density, Hausner ratio and Carr index (Ph. Eur. 2.9.34. Method 1). The settings on record: PSD/μm 3/8/24. As for the experimental part:
Bulk density/tapped density and corresponding Hausner ratio and Carr index were determined according to Ph. Eur. 2.9.34. Method 1.

Series [5] in a line: Polymorph stability on storage at various relative humidity (PXRD). As for the experimental part:
Sample after being powdered in a mortar and pestle is applied directly on a silicon plate holder. The X-ray powder diffraction pattern was measured with Philips X'Pert PRO X-ray powder diffractometer, equipped with Cu irradiation source=1.54184 Å(Ångström), X'Celerator (2.022° 2θ) detector. Scanning parameters: angle range: 3-40 deg., step size 0.0167, time per step 37 s, continuous scan.
(§1) The obtained amorphous form was stored at various conditions, and the PXRD was analyzed after 3 and 7 days:
The obtained pure amorphous form was stored at various conditions, and the PXRD was analyzed after 3 and 7 days:
(§2) The obtained form alpha was stored at various conditions, and the PXRD was analyzed after 3 and 8 days:
(§3) The obtained amorphous form was stored at various conditions of relative humidity, and the PXRD was obtained after 1M (Table 4):
(§4) The obtained amorphous form was stored at various conditions, and the PXRD was obtained after 2M (Table 5):
(§5) XRPD pattern is shown in FIG. 16; SEM image is shown in FIG. 17; DSC thermogram is shown in FIG. 21 and TGA thermogram is shown in FIG. 22. The obtained form alpha was stored at various conditions, and the PXRD was obtained after 8, 14, and 21 days (Table 6): […]

A short description of series [6]: % weight loss / water content (TGA, KF) after storage at various relative humidity. The settings on record: for % weight loss/water cont. - after 21 days, TGA: TGA up to 121° C. As for the experimental part: as §1, §2, §3, §4, §5

In the case of `COc1ccc(CN(C(=O)[C@@H](N)Cc2c(C)cc(C(N)=O)cc2C)[C@@H](C)c2nc(-c3ccccc3)c[nH]2)cc1C(=O)O` [Eluxadoline alpha-lower particle size, Eluxadoline], the “Density at 0.2 MPa” value in series [1] worked out at 0.5190 mg/mm^3.
Take `COc1ccc(CN(C(=O)[C@@H](N)Cc2c(C)cc(C(N)=O)cc2C)[C@@H](C)c2nc(-c3ccccc3)c[nH]2)cc1C(=O)O` [Example 22]: the “% dissolved” value in series [2] (5 min) is reported as 83.62%; in series [2] (10 min) it was 91.02%; in series [2] (20 min) it was 95.48%; in series [2] (30 min), 95.87%; in series [2] (45 min) it was 96.56%; in series [2] (60 min), 96.64%. The SSA in series [3] stood at 9.63 m^2/g. Besides, in series [1], the “Density at 0.2 MPa” value stood at 0.4707 mg/mm^3. Moreover, the Bulk density in series [4] turned out to be 0.33 mg/mm^3. In addition, the “Carr's index” value in series [4] was 14.93%. Further, in series [4], the “Flow character (Carr's index)” value is given as “good”. The Hausner ratio in series [4] was determined as 1.18. For the same compound, in series [4], the Tapped density turned out to be 0.39 mg/mm^3. Moreover, the “PXRD results - after 21 days” value in series [5] (0% RH, 21 days) is “alpha”; in series [5] (20% RH, 21 days) it was “alpha”; in series [5] (40% RH, 21 days) it was “alpha”; in series [5] (60% RH, 21 days), “alpha”; in series [5] (80% RH, 21 days) it was “alpha”; in series [5] (100% RH, 21 days), “alpha”. Further, in series [5] (As is), the “PXRD results - after 21 days” value is “alpha”. Further, the “% weight loss/water cont. - after 21 days, TGA” value in series [6] (0% RH, 21 days) is “TGA-0.96%”; in series [6] (20% RH, 21 days), “TGA-1.26%”; in series [6] (40% RH, 21 days), “TGA-1.46%”; in series [6] (60% RH, 21 days) it was “TGA-6.30%”; in series [6] (80% RH, 21 days), “TGA-7.00%”; in series [6] (100% RH, 21 days), “TGA-9.01%”. The “% weight loss/water cont. - after 21 days, TGA” value in series [6] (As is) came to 0.95%. Moreover, in series [6] (As is), the “% weight loss/water cont. - after 21 days, KF” value was 1.12%.
